Test results: patent publication US4111923A, “Octapeptides and methods for their production” (Parke, Davis & Company, priority 1976, dated 1978)
Non-standard residues stand in square brackets, D forms with d. Residues, ends and D or L forms follow the SMILES beside them. *: point of attachment. Cbz = O=C(OCc1ccccc1)*; Bn = c1ccc(C*)cc1

System: LRF-induced luteinizing hormone (LH) release in rat anterior pituitary cell cultures
Test: In vitro test in rat anterior pituitary cell cultures: inhibition of LRF-induced LH release into the culture medium
Type: cell-based
Protocol: octapeptides of this invention are screened for LRF antagonist activity in vitro using rat anterior pituitary cell cultures as described by Vale et al. [Endocrinology, 91, 562 (1972)]. The inhibition of LRF-induced luteinizing hormone (LH) release into the culture medium is the endpoint in this in vitro bioassay. Active peptides are then tested in vivo by the procedures of Humphrey et al. [Endocrinology, 92, 1515 (1972)]. Antagonist activity is assessed by the inhibition of LRF-induced LH release in the female rat and LRF-induced ovulation in the rabbit.
Following are the results of the above in vitro tests on certain preferred compounds.

[1] = compound 1×10^-8 molar, LRF 5×10^-10, LRF control 46.58, saline control 9.10
[2] = compound 1×10^-9 molar, LRF 5×10^-10, LRF control 46.58, saline control 9.10
[3] = compound 5×10^-8 molar, LRF 5×10^-10, LRF control 46.58, saline control 9.10
[4] = compound 5×10^-9 molar, LRF 5×10^-10, LRF control 46.58, saline control 9.10
[5] = compound 1×10^-8 molar, LRF 3.5×10^-10, LRF control 42.38, saline control 8.72
[6] = compound 1×10^-9 molar, LRF 3.5×10^-10, LRF control 42.38, saline control 8.72
[7] = compound 1×10^-10 molar, LRF 3.5×10^-10, LRF control 42.38, saline control 8.72
[8] = compound 2×10^-9 molar, LRF 3.5×10^-10, LRF control 42.38, saline control 8.72
[9] = compound 2.5×10^-10 molar, LRF 3.5×10^-10, LRF control 42.38, saline control 8.72
[10] = compound 3.5×10^-9 molar, LRF 3.5×10^-10, LRF control 42.38, saline control 8.72
[11] = compound 6×10^-9 molar, LRF 3.5×10^-10, LRF control 42.38, saline control 8.72
[12] = compound 6×10^-10 molar, LRF 3.5×10^-10, LRF control 42.38, saline control 8.72
[13] = first series, compound 1×10^-8 molar, LRF 5×10^-10, LRF control 52.80, saline control 13.28
[14] = first series, compound 1×10^-9 molar, LRF 5×10^-10, LRF control 52.80, saline control 13.28
[15] = first series, compound 1×10^-10 molar, LRF 5×10^-10, LRF control 52.80, saline control 13.28
[16] = first series, compound 2.5×10^-9 molar, LRF 5×10^-10, LRF control 52.80, saline control 13.28
[17] = first series, compound 2.5×10^-10 molar, LRF 5×10^-10, LRF control 52.80, saline control 13.28
[18] = first series, compound 5×10^-9 molar, LRF 5×10^-10, LRF control 52.80, saline control 13.28
[19] = first series, compound 5×10^-10 molar, LRF 5×10^-10, LRF control 52.80, saline control 13.28
[20] = second series, compound 1×10^-9 molar, LRF 5×10^-10, LRF control 69.43, saline control 18.17
[21] = second series, compound 1×10^-10 molar, LRF 5×10^-10, LRF control 69.43, saline control 18.17
[22] = second series, compound 2.5×10^-9 molar, LRF 5×10^-10, LRF control 69.43, saline control 18.17
[23] = second series, compound 2.5×10^-10 molar, LRF 5×10^-10, LRF control 69.43, saline control 18.17
[24] = second series, compound 5×10^-10 molar, LRF 5×10^-10, LRF control 69.43, saline control 18.17
[25] = compound 2×10^-8 molar, LRF 3.5×10^-10, LRF control 42.38, saline control 8.72

Molecule: CCNC(=O)[C@@H]1CCCN1C(=O)[C@H](CCCNC(=N)N)NC(=O)[C@H](CC(C)C)NC(=O)[C@@H](Cc1ccccc1)NC(=O)[C@H](Cc1ccc(O)cc1)NC(=O)[C@H](CO)NC(=O)[C@H](Cc1c[nH]c2ccccc12)NC(=O)[C@H](CCC(N)=O)NC(=O)OCc1ccccc1 [N^α -Benzyloxycarbonyl-L-glutaminyl-L-tryptophyl-L-seryl-L-tyrosyl-D-phenylalanyl-L-leucyl-L-arginyl-L-proline N-ethylamide] (Cbz-QWSY[dF]LRP-NHEt)
- % LH Release Inhibition [1]: 71%
- LH Value [1]: 19.91 ng/mL
- % LH Release Inhibition [2]: 23%
- LH Value [2]: 38.13 ng/mL
- % LH Release Inhibition [3]: 95%
- LH Value [3]: 11.16 ng/mL
- % LH Release Inhibition [4]: 42%
- LH Value [4]: 30.85 ng/mL

Molecule: CCNC(=O)[C@@H]1CCCN1C(=O)[C@H](CCCNC(=N)N)NC(=O)[C@H](CC(C)C)NC(=O)[C@@H](Cc1ccccc1)NC(=O)[C@H](Cc1ccc(O)cc1)NC(=O)[C@H](CO)NC(=O)[C@H](Cc1c[nH]c2ccccc12)NC(=O)[C@H](COCc1ccccc1)NC(=O)OCc1ccccc1.Cl [N^α -Benzyloxycarbonyl-O-benzyl-L-seryl-L-tryptophyl-L-seryl-L-tyrosyl-D-phenylalanyl-L-leucyl-L-arginyl-L-proline N-ethylamide hydrochloride] (Cbz-S(Bn)WSY[dF]LRP-NHEt)
- % LH Release Inhibition [5]: 99%
- LH Value [5]: 9.16 ng/mL
- % LH Release Inhibition [6]: 68%
- LH Value [6]: 19.35 ng/mL
- % LH Release Inhibition [7]: 18%
- LH Value [7]: 36.48 ng/mL
- % LH Release Inhibition [8]: 83%
- LH Value [8]: 14.48 ng/mL
- % LH Release Inhibition [9]: 37%
- LH Value [9]: 29.88 ng/mL
- % LH Release Inhibition [10]: 93%
- LH Value [10]: 11.16 ng/mL
- % LH Release Inhibition [11]: 93%
- LH Value [11]: 10.95 ng/mL
- % LH Release Inhibition [12]: 50%
- LH Value [12]: 25.41 ng/mL

Molecule: LRF: luteinizing hormone releasing factor, also referred to as luteinizing hormone releasing hormone, or LH-RH; stimulates secretion of luteinizing hormone (QHWSYGLRPG; Gonadoliberin-1; UniProt P01148 24-33, looked up) [reference compound]
- LH Value (LRF alone 3.5×10^-10 molar, saline control 8.72): 42.38 ng/mL
- LH Value (LRF alone 5×10^-10 molar, saline control 9.10): 46.58 ng/mL
- LH Value (first series, LRF alone 5×10^-10 molar, saline control 13.28): 52.80 ng/mL
- LH Value (second series, LRF alone 5×10^-10 molar, saline control 18.17): 69.43 ng/mL

Molecule: N^α -BENZYLOXYCARBONYL-O-BENZYL-L-SERYL-L-TRYPTOPHYL-L-SERYL-L-TYROSYL-D-PENTAMETHYLPHENYLALANYL-L-LEUCYL-L-ARGINYL-L-PROLINE N-ETHYLAMIDE
- % LH Release Inhibition [13]: 104%
- LH Value [13]: 11.58 ng/mL
- % LH Release Inhibition [14]: 91%
- LH Value [14]: 16.69 ng/mL
- % LH Release Inhibition [15]: 36%
- LH Value [15]: 38.59 ng/mL
- % LH Release Inhibition [16]: 105%
- LH Value [16]: 11.35 ng/mL
- % LH Release Inhibition [17]: 47%
- LH Value [17]: 34.06 ng/mL
- % LH Release Inhibition [18]: 100%
- LH Value [18]: 13.16 ng/mL
- % LH Release Inhibition [19]: 70%
- LH Value [19]: 25.16 ng/mL
- % LH Release Inhibition [20]: 104%
- LH Value [20]: 16.00 ng/mL
- % LH Release Inhibition [21]: 46%
- LH Value [21]: 46.11 ng/mL
- % LH Release Inhibition [22]: 98%
- LH Value [22]: 19.09 ng/mL
- % LH Release Inhibition [23]: 77%
- LH Value [23]: 30.08 ng/mL
- % LH Release Inhibition [24]: 90%
- LH Value [24]: 23.26 ng/mL

Molecule: N^α -Benzyloxycarbonyl-N^γ -benzyl-L-glutaminyl-L-tryptophyl-L-seryl-L-tyrosyl-D-phenylalanyl-L-leucyl-L-arginyl-L-proline N-ethylamide
- % LH Release Inhibition [5]: 92%
- LH Value [5]: 11.28 ng/mL
- % LH Release Inhibition [6]: 56%
- LH Value [6]: 23.66 ng/mL
- % LH Release Inhibition [7]: 35%
- LH Value [7]: 30.60 ng/mL
- % LH Release Inhibition [25]: 94%
- LH Value [25]: 10.77 ng/mL
- % LH Release Inhibition [8]: 60%
- LH Value [8]: 22.09 ng/mL
- % LH Release Inhibition [9]: 20%
- LH Value [9]: 35.62 ng/mL
- % LH Release Inhibition [10]: 61%
- LH Value [10]: 21.76 ng/mL
- % LH Release Inhibition [11]: 81%
- LH Value [11]: 15.07 ng/mL
- % LH Release Inhibition [12]: 51%
- LH Value [12]: 25.13 ng/mL

Molecule: N^α -Benzyloxycarbonyl-O-benzyl-L-seryl-L-tryptophyl-L-seryl-L-tyrosyl-DL-pentamethylphenylalanyl-L-leucyl-L-arginyl-L-proline N-ethylamide
- % LH Release Inhibition [13]: 102%
- LH Value [13]: 12.61 ng/mL
- % LH Release Inhibition [14]: 89%
- LH Value [14]: 17.58 ng/mL
- % LH Release Inhibition [16]: 102%
- LH Value [16]: 12.47 ng/mL
- % LH Release Inhibition [17]: 61%
- LH Value [17]: 28.53 ng/mL
- % LH Release Inhibition [18]: 96%
- LH Value [18]: 14.80 ng/mL
- % LH Release Inhibition [19]: 62%
- LH Value [19]: 28.31 ng/mL
- % LH Release Inhibition [20]: 100%
- LH Value [20]: 18.35 ng/mL
- % LH Release Inhibition [21]: 42%
- LH Value [21]: 48.03 ng/mL
- % LH Release Inhibition [22]: 108%
- LH Value [22]: 13.91 ng/mL
- % LH Release Inhibition [23]: 65%
- LH Value [23]: 36.04 ng/mL
- % LH Release Inhibition [24]: 87%
- LH Value [24]: 24.94 ng/mL
